Measurements from patent publication US11584744B2 (UNIVERSITY OF WASHINGTON, priority 2017, dated 2023).
Values after ≈ are worked out from the molar mass of the structure shown. Values joined by “and” are separate entries in the source; they are usually repeats but may differ in a detail not shown here. Equal values may be shown once. Read-outs that look alike come from different tables or passages of the source.

Tests used:
T. brucei = T. brucei growth inhibition; format: cell-based, Trypanosoma brucei; conditions: read-out: (D) T. brucei EC50
T. cruzi = T. cruzi growth inhibition; format: cell-based, Trypanosoma cruzi; conditions: read-out: (E) T. cruzi EC50
C. parvum = C. parvum growth inhibition; format: cell-based, Cryptosporidium parvum; conditions: read-out: (J) C. parvum EC50
MetRS (C. parvum) = MetRS (C. parvum) (Cryptosporidium parvum, UniProt Q5CVN0); assay: MetRS (C. parvum) enzyme inhibition; format: biochemical
MetRS (C. parvum), sequence (Q5CVN0 entry or part of it): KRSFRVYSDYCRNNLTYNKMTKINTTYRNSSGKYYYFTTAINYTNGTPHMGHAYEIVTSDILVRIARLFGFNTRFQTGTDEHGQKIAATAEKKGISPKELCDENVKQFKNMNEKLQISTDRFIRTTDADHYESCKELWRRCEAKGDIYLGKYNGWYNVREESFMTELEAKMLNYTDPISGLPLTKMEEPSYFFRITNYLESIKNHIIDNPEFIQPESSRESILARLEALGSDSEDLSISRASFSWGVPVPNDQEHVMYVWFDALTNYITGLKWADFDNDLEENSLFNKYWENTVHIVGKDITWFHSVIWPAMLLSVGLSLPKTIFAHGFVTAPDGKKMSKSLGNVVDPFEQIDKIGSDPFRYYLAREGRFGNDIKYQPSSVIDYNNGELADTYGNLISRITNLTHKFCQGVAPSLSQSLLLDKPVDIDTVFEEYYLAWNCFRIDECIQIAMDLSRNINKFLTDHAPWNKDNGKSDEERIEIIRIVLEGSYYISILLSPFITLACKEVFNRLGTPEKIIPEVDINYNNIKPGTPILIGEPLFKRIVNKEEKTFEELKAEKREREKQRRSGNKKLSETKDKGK

MetRS (T. brucei) = molecular target: T1, MetRS (T. brucei) (Trypanosoma brucei brucei, UniProt Q38C91); assay: MetRS (T. brucei) enzyme inhibition; format: biochemical
T1 sequence (Q38C91 1-773): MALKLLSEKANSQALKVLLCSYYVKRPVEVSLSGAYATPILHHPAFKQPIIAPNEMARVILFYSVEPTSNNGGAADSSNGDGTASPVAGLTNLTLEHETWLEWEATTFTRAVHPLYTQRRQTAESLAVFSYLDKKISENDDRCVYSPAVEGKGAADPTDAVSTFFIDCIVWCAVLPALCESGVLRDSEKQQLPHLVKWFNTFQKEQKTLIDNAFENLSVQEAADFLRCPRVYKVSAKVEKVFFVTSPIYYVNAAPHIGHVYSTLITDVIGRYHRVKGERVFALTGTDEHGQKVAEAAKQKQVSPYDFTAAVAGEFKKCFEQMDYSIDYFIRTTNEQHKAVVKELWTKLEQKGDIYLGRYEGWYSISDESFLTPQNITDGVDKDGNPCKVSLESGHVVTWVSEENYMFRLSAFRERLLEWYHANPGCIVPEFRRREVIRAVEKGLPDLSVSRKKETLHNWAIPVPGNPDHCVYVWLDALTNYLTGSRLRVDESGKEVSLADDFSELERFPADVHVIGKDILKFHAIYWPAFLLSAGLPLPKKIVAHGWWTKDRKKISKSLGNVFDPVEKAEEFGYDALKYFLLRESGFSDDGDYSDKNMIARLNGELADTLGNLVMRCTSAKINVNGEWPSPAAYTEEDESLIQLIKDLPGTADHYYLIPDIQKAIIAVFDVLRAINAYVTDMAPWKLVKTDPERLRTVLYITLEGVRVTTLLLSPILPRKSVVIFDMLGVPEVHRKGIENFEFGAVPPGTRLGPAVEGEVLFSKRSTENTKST

[1] = system: S. aureus MSSA (ATCC 29213); assay: MIC susceptibility testing; format: cell-based, Staphylococcus aureus; conditions: S. aureus ATCC 29213; for MIC: Staphylococcus aureus, read-out: (F) S. aureus (ATCC 29213) MIC
Source text: (§1) Media and culture conditions. Mueller Hinton broth (MHB), cation adjusted Mueller Hinton broth (CA-MHB), and Brain Heart Infusion broth (BHI) were purchased from Becton Dickinson (Franklin Lakes, N.J.). Tryptic soy agar (TSA) plates, TSA with 5% sheep blood plates, and CA-MHB with 3% laked horse blood were purchased from Remel (San Diego, Calif.). MHB was used to assay all Staphylococcus aureus strains. CA-MHB was used for Staphylococcus epidermidis, Enterococcus faecalis, Enterococcus faecium, Escherichia coli, and Pseudomonas aeruginosa. CA-MHB supplemented with 3% laked horse blood was used for Streptococcus pneumoniae and Streptococcus pyogenes. Staphylococcus, Enterococcus, Escherichia, and Pseudomonas strains were cultured at 37° C. with ambient air. Streptococcus strains were cultured in 37° C. with 5% CO2. Separate conditions for radiolabeled precursor uptake assays are described below.
(§2) Susceptibility testing: Minimum inhibitory concentration (MIC) determinations were performed in triplicate in 96-well round bottom microtiter plates (Corning, Corning N.Y.) as described by the Clinical and Laboratory Standards Institute (CLSI). Serial two-fold dilutions of compounds were added to plates in 50 μL volumes. An additional 50 μL of media containing bacterial cells (1×10^6 CFUs/mL) was then added to each well. Maximum DMSO concentrations were 0.5%. Plates were incubated at 37° C. for at least 18 h before reading the susceptibility result by optical absorbance (OD600) using a BioTek ELx800. The lowest concentration causing ≥90% growth inhibition compared to the untreated control was recorded as the MIC (and also corresponded to the visual MIC). MICs were measured at least twice and the higher value (if different) was recorded herein.

[2] = system: S. aureus MRSA (ATCC 33591); assay: MIC susceptibility testing; format: cell-based, Staphylococcus aureus; conditions: MRSA ATCC33591; for MIC: Staphylococcus aureus, read-out: (G) MRSA (ATCC33591) MIC
Source text: as §1, §2

[3] = read-out: (C) MetRS (C. parvum) IC50

EC50 (T. brucei; Trypanosoma brucei) [nM] | EC50 (T. cruzi; Trypanosoma cruzi) [nM] | EC50 (C. parvum; Cryptosporidium parvum) [nM] | IC50 (MetRS (C. parvum); [3]) [nM] | IC50 (MetRS (T. brucei)) | MIC [1] [µg/mL] | MIC [2] [µg/mL] | EC50 (T. brucei) [nM] | EC50 (T. cruzi) [nM] | (G) MRSA (ATCC33591) MIC [2] [µg/mL] | (F) S. aureus (ATCC 29213) MIC [1] | EC50 (C. parvum) [nM] | Structure (SMILES) | IC50 (MetRS (C. parvum)) [nM]
3.73 | 367 | > 2000 | 74.5 | < 40 nM | > 2.5 | – | – | – | – | – | – | NCCn1c(Cc2ccc(Cl)cc2Cl)cn(Cc2nc3ccc(Cl)nc3[nH]2)c1=O [Compound 2214, 3-(2-aminoethyl)-1-((5-chloro-3H-imidazo[4,5-b]pyridin-2-yl)methyl)-4-(2,4-dichlorobenzyl)-1,3-dihydro-2H-imidazol-2-one] | –
– | 526 | > 2000 | < 40 | < 40 nM | > 2.5 | – | – | – | – | – | – | O=c1n(Cc2nc3ccc(F)nc3[nH]2)cc(Cc2ccc(Cl)cc2Cl)n1C1CCCCC1 [Compound 2071, 3-cyclohexyl-4-[(2,4-dichlorophenyl)methyl]-1-({5-fluoro-1H-imidazo[4,5-b]pyridin-2-yl}methyl)-2,3-dihydro-1H-imidazol-2-one] | –
29 | 302 | – | 75.3 | < 40 nM | 1.16 (≈ 2.64 µM) | 1.87 (≈ 4.26 µM) | – | – | – | – | – | COc1ccc(-c2ccc(N)c3nc(Cc4nc5nc(Cl)ccc5[nH]4)cn23)c(Cl)c1 [Compound 2171, 2-({5-chloro-1H-imidazo[4,5-b]pyridin-2-yl}methyl)-5-(2-chloro-4-methoxyphenyl)imidazo[1,2-a]pyridin-8-amine] | –
5.94 | 552 | – | 41.2 | < 40 nM | 0.964 (≈ 2.21 µM) | > 2.5 | 7.64 | – | – | – | – | O=c1n(Cc2nc3nc(F)ccc3[nH]2)cc(Cc2ccc(Cl)cc2Cl)n1CCO [Compound 2086, 4-[(2,4-dichlorophenyl)-methyl]-1-({5-fluoro-1H-imidazo[4,5-b]pyridin-2-yl}methyl)-3-(2-hydroxyethyl)-2,3-dihydro-1H-imidazol-2-one] | –
12.3 | 76.5 | 1940 | – | – | – | > 2 | 20.3 | 77.2 | 1.59 | – | – | COc1ccc(-c2nccc3nc(Cc4nc5ccc(Cl)nc5[nH]4)cn23)c(Cl)c1 [Compound 2256, 2-({5-chloro-1H-imidazo[4,5-b]pyridin-2-yl}methyl)-5-(2-chloro-4-methoxyphenyl)imidazo[1,2-c]pyrimidine] | –
– | 116 | 629 | < 40 | < 40 nM | 0.245 (≈ 0.527 µM) | – | – | – | – | – | – | COc1ccc(-c2ccc(NC(C)=O)c3nc(Cc4nc5nc(F)ccc5[nH]4)cn23)c(Cl)c1 [Compound 2183, N-[5-(2-chloro-4-methoxyphenyl)-2-({5-fluoro-1H-imidazo[4,5-b]pyridin-2-yl}methyl)imidazo[1,2-a]pyridin-8-yl]acetamide] | –
25.4 | – | > 2000 | < 40 | – | 0.0924 (≈ 0.218 µM) | 0.0378 (≈ 0.0891 µM) | 17.3 | – | – | 0.0526, μg/ml and 0.0902 μg/ml | – | COc1ccc(-c2cccc3nn(Cc4nc5nc(Cl)ccc5[nH]4)cc23)c(Cl)c1 [Compound 2245, 2-({5-chloro-1H-imidazo[4,5-b]pyridin-2-yl}methyl)-4-(2-chloro-4-methoxyphenyl)-2H-indazole] | –
– | 8.03 | 310 | – | – | – | 0.876 (≈ 1.71 µM) | – | 8.17 | – | – | 219 | COc1ccc(Cc2cn(Cc3nc4nc(Br)ccc4[nH]3)c(=O)n2CC(F)F)c(Cl)c1 [Compound 2257, 1-({5-bromo-1H-imidazo[4,5-b]pyridin-2-yl}methyl)-4-[(2-chloro-4-methoxyphenyl)methyl]-3-(2,2-difluoroethyl)-2,3-dihydro-1H-imidazol-2-one] | –
– | 4620 | > 2000 | – | 380 nM and 781 nM | – | – | – | – | – | – | – | COc1ccc(Cc2cn(Cc3nc4nc(Cl)ccc4[nH]3)c(=O)n2CC(C)(C)NC(C)=O)c(Cl)c1 [Compound 2209, N-{1-[3-({5-chloro-1H-imidazo[4,5-b]pyridin-2-yl}methyl)-5-[(2-chloro-4-methoxyphenyl)methyl]-2-oxo-2,3-dihydro-1H-imidazol-1-yl]-2-methylpropan-2-yl}acetamide] | –
268 | 630 | – | 431 | – | – | > 2 | – | – | – | – | – | COc1ccc(-c2cccc3c2CN(Cc2nc4nc(C(F)(F)F)nc(N)c4[nH]2)C3=O)c(Cl)c1 [Compound 2252, 2-((6-amin0-2-(trifluoromethyl)-7H-purin-8-yl)methyl)-4-(2-chloro-4-methoxyphenyl)isoindolin-1-one] | –
287 | > 5000 | > 2000 | 53.2 | < 40 nM | – | – | – | – | – | – | – | O=C(O)Cn1c(C(=O)c2ccc(Cl)cc2Cl)cn(Cc2nc3ccc(Cl)nc3[nH]2)c1=O [Compound 2216, 2-[3-({5-chloro-1H-imidazo[4,5-b]pyridin-2-yl}methyl)-5-(2,4-dichlorobenzoyl)-2-oxo-2,3-dihydro-1H-imidazol-1-yl]acetic acid] | –
4.56 | 514 | 834 | < 40 | < 40 nM | 1.71 (≈ 3.97 µM) | – | 9.03 | – | – | – | 683 | C#CCn1c(Cc2ccc(Cl)cc2Cl)cn(Cc2nc3ccc(F)nc3[nH]2)c1=O [Compound 2085, 4-[(2,4-dichlorophenyl)methyl]-1-({5-fluoro-1H-imidazo[4,5-b]pyridin-2-yl}methyl)-3-(prop-2-yn-1-yl)-2,3-dihydro-1H-imidazol-2-one] | –
39.9 | 133 | > 2000 | – | – | 1.22 (≈ 2.25 µM) | – | 73.1 | – | – | – | – | O=c1n(Cc2nc3c(F)c(F)ccc3[nH]2)cc(Cc2ccc(Cl)cc2Cl)n1CC1CCNCC1(F)F (centres unmarked) [Compound 2264, 5-(2,4-dichlorobenzyl)-3-((4,5-difluoro-1H-benzo[d]imidazol-2-yl)methyl)-1-((3,3-difluoropiperidin-4-yl)methyl)-1H-imidazol-2(3H)-one] | –
168 | – | – | 138 | – | – | > 2 | – | – | – | – | – | COc1ccc(-c2nccn3c(=O)n(Cc4nc5c(Cl)c(Cl)ccc5[nH]4)cc23)c(Cl)c1 [Compound 2254, 8-(2-chloro-4-methoxyphenyl)-2-[(6,7-dichloro-1H-1,3-benzodiazol-2-yl)methyl]-2H,3H-imidazo[1,5-a]pyrazin-3-one] | –
64.5 | 1330 | 1780 | < 40 | < 40 nM | – | – | – | – | – | – | – | COc1ccc(-c2cnn3c2CN(Cc2nc4nc(F)ccc4[nH]2)CC3)c(Cl)c1 [Compound 2170, 2-((3-(2-chloro-4-methoxyphenyl)-6,7-dihydropyrazolo[1,5-a]pyrazin-5(4H)-yl)methyl)-5-fluoro-1H-imidazo[4,5-b]pyridine] | –

Structure (SMILES) | EC50 (T. brucei; Trypanosoma brucei) [nM] | EC50 (T. cruzi; Trypanosoma cruzi) [nM] | EC50 (C. parvum; Cryptosporidium parvum) [nM] | IC50 (MetRS (C. parvum); [3]) [nM] | IC50 (MetRS (T. brucei)) | MIC [1] [µg/mL] | MIC [2] [µg/mL] | EC50 (T. brucei) [nM] | EC50 (T. cruzi) [nM] | (G) MRSA (ATCC33591) MIC [2] [µg/mL] | (F) S. aureus (ATCC 29213) MIC [1] | EC50 (C. parvum) [nM] | IC50 (MetRS (C. parvum)) [nM]
Clc1ccc(Cc2cn(Cc3nc4cc(Cl)ccc4[nH]3)cn2)c(Cl)c1 [Compound 2192, 6-chlor0-2-({4-[(2,4-dichlorophenyl)-methyl]-1H-imidazol-1-yl}methyl)-1H-1,3-benzodiazole] | 85.2 | 516 | > 2000 | – | < 40 nM | – | – | – | – | – | – | – | 114
